In ChEMBL document CHEMBL1142200, “Efficacy of delayed treatment with ST-246 given orally against systemic orthopoxvirus infections in mice” (Antimicrob Agents Chemother, 2007):
Calls of active or inactive are those of the source. The rule behind the calls is not given here.

Legend:
[1] = test system: Vaccinia virus; test: Reduction of Vaccinia virus WR replication in BALB/c mouse spleen at 50 mg/kg after 24 hrs of viral infection, po for 9 days; assay type: functional, organism-based; parameters: dose 50 mg/kg; conditions: Orthopoxvirus vaccinia
[2] = test system: Mus musculus; test: Effect on mortality of BALB/c mouse inoculated with Cowpox virus at 10 mg/kg after 48 hrs of viral infection, po once daily for 14 days relative to control; assay type: functional
[3] = test system: Mus musculus; test: Effect on mortality of BALB/c mouse inoculated with Vaccinia virus WR at 100 mg/kg after 24 hrs of viral infection, po once daily for 14 days relative to control; assay type: functional
[4] = test system: Ectromelia virus; test: Reduction of Ectromelia virus replication in BALB/c mouse liver at 100 mg/kg, po once daily after 4 days; assay type: functional, organism-based; parameters: dose 100 mg/kg
[5] = test system: Ectromelia virus; test: Reduction of Ectromelia virus replication in BALB/c mouse liver at 100 mg/kg, po once daily after 14 days; assay type: functional, organism-based; parameters: dose 100 mg/kg
[6] = test system: Mus musculus; test: Effect on mortality of A/NCr mouse inoculated with ectromelia virus at 100 mg/kg after 24 hrs of viral infection, po once daily for 10 days relative control; assay type: functional
[7] = test system: Mus musculus; test: Effect on mortality of BALB/c mouse inoculated with Cowpox virus at 30 mg/kg after 24 hrs of viral infection, po once daily for 14 days relative to control; assay type: functional
[8] = test system: Ectromelia virus; test: Reduction of Ectromelia virus replication in BALB/c mouse esophagus at 100 mg/kg, po once daily after 8 days; assay type: functional, organism-based; parameters: dose 100 mg/kg
[9] = test system: Mus musculus; test: Effect on mortality of A/NCr mouse inoculated with 410 PFU ectromelia virus at 100 mg/kg after 24 hrs of viral infection, po twice daily for 14 days; assay type: functional
[10] = test system: Vaccinia virus; test: Reduction of Vaccinia virus WR replication in BALB/c mouse lung at 50 mg/kg after 24 hrs of viral infection, po for 9 days; assay type: functional, organism-based; parameters: dose 50 mg/kg; conditions: Orthopoxvirus vaccinia
[11] = test system: Ectromelia virus; test: Reduction of Ectromelia virus replication in BALB/c mouse spleen at 100 mg/kg, po once daily after 6 days; assay type: functional, organism-based; parameters: dose 100 mg/kg
[12] = test system: Mus musculus; test: Effect on mortality of BALB/c mouse inoculated with Cowpox virus BR at 100 mg/kg after 24 hrs of viral infection, po once daily for 10 days relative to control; assay type: functional
[13] = test system: Ectromelia virus; test: Reduction of Ectromelia virus replication in BALB/c mouse nasal wash at 100 mg/kg, po once daily after 8 days; assay type: functional, organism-based; parameters: dose 100 mg/kg
[14] = test system: Cowpox virus; test: Reduction of Cowpox virus BR replication in BALB/c mouse spleen at 50 mg/kg after 24 hrs of viral infection, po for 9 days; assay type: functional, organism-based; parameters: dose 50 mg/kg
[15] = test system: Mus musculus; test: Effect on mortality of BALB/c mouse inoculated with Cowpox virus BR at 100 mg/kg after 4 hrs of viral infection, po once daily for 5 days relative to control; assay type: functional
[16] = test system: Ectromelia virus; test: Reduction of Ectromelia virus replication in BALB/c mouse lung at 100 mg/kg, po once daily after 14 days; assay type: functional, organism-based; parameters: dose 100 mg/kg
[17] = test system: Mus musculus; test: Effect on mortality of BALB/c mouse inoculated with Cowpox virus at 10 mg/kg after 24 hrs of viral infection, po once daily for 14 days relative to control; assay type: functional
[18] = test system: Ectromelia virus; test: Reduction of Ectromelia virus replication in BALB/c mouse esophagus at 100 mg/kg, po once daily after 6 days; assay type: functional, organism-based; parameters: dose 100 mg/kg
[19] = test system: Mus musculus; test: Effect on mortality of BALB/c mouse inoculated with Vaccinia virus WR at 100 mg/kg after 24 hrs of viral infection, po once daily for 10 days relative to control; assay type: functional
[20] = test system: Mus musculus; test: Effect on mortality of BALB/c mouse inoculated with Cowpox virus at 30 mg/kg after 4 hrs of viral infection, po once daily for 14 days relative to control; assay type: functional
[21] = test system: Cowpox virus; test: Reduction of Cowpox virus BR replication in BALB/c mouse lung at 50 mg/kg after 24 hrs of viral infection, po for 9 days; assay type: functional, organism-based; parameters: dose 50 mg/kg
[22] = test system: Mus musculus; test: Effect on mortality of BALB/c mouse inoculated with Cowpox virus at 30 mg/kg after 48 hrs of viral infection, po once daily for 14 days relative to control; assay type: functional
[23] = test system: Mus musculus; test: Effect on mortality of BALB/c mouse inoculated with Vaccinia virus WR at 100 mg/kg after 4 hrs of viral infection, po once daily for 7 days relative to control; assay type: functional
[24] = test system: Mus musculus; test: Effect on mortality of BALB/c mouse inoculated with Cowpox virus BR at 100 mg/kg after 24 hrs of viral infection, po once daily for 7 days relative to control; assay type: functional
[25] = test system: Ectromelia virus; test: Reduction of Ectromelia virus replication in BALB/c mouse esophagus at 100 mg/kg, po once daily after 4 days; assay type: functional, organism-based; parameters: dose 100 mg/kg
[26] = test system: Mus musculus; test: Effect on mortality of BALB/c mouse inoculated with Vaccinia virus WR at 100 mg/kg after 4 hrs of viral infection, po once daily for 5 days relative to control; assay type: functional
[27] = test system: Ectromelia virus; test: Reduction of Ectromelia virus replication in BALB/c mouse esophagus at 100 mg/kg, po once daily after 14 days; assay type: functional, organism-based; parameters: dose 100 mg/kg
[28] = test system: Ectromelia virus; test: Reduction of Ectromelia virus replication in BALB/c mouse trachea at 100 mg/kg, po once daily after 4 days; assay type: functional, organism-based; parameters: dose 100 mg/kg
[29] = test system: Mus musculus; test: Effect on mortality of BALB/c mouse inoculated with Vaccinia virus WR at 100 mg/kg after 4 hrs of viral infection, po once daily for 10 days relative to control; assay type: functional
[30] = test system: Mus musculus; test: Effect on mortality of BALB/c mouse inoculated with Vaccinia virus WR at 100 mg/kg after 24 hrs of viral infection, po once daily for 7 days relative to control; assay type: functional
[31] = test system: Ectromelia virus; test: Reduction of Ectromelia virus replication in BALB/c mouse lung at 100 mg/kg, po once daily after 4 days; assay type: functional, organism-based; parameters: dose 100 mg/kg
[32] = test system: Ectromelia virus; test: Reduction of Ectromelia virus replication in BALB/c mouse liver at 100 mg/kg, po once daily after 8 days; assay type: functional, organism-based; parameters: dose 100 mg/kg
[33] = test system: Ectromelia virus; test: Reduction of Ectromelia virus replication in BALB/c mouse nasal wash at 100 mg/kg, po once daily after 6 days; assay type: functional, organism-based; parameters: dose 100 mg/kg
[34] = test system: Cowpox virus; test: Reduction of Cowpox virus BR replication in BALB/c mouse liver at 50 mg/kg after 24 hrs of viral infection, po for 9 days; assay type: functional, organism-based; parameters: dose 50 mg/kg
[35] = test system: Ectromelia virus; test: Reduction of Ectromelia virus replication in BALB/c mouse trachea at 100 mg/kg, po once daily after 6 days; assay type: functional, organism-based; parameters: dose 100 mg/kg
[36] = test system: Ectromelia virus; test: Reduction of Ectromelia virus replication in BALB/c mouse nasal wash at 100 mg/kg, po once daily after 14 days; assay type: functional, organism-based; parameters: dose 100 mg/kg
[37] = test system: Mus musculus; test: Effect on mortality of BALB/c mouse inoculated with Cowpox virus BR at 100 mg/kg after 4 hrs of viral infection, po once daily for 14 days relative to control; assay type: functional
[38] = test system: Mus musculus; test: Effect on mortality of A/NCr mouse inoculated with ectromelia virus at 100 mg/kg after 72 hrs of viral infection, po once daily for 10 days relative control; assay type: functional
[39] = Cytotoxicity against HFF cells; assay type: cell-based; conditions: human
[40] = test system: Ectromelia virus; test: Reduction of Ectromelia virus replication in BALB/c mouse spleen at 100 mg/kg, po once daily after 8 days; assay type: functional, organism-based; parameters: dose 100 mg/kg
[41] = Selectivity index, ratio of CC50 for HFF cells to EC50 for Vaccinia virus Copenhagen infected HFF cells; assay type: functional
[42] = test system: Ectromelia virus; test: Reduction of Ectromelia virus replication in BALB/c mouse trachea at 100 mg/kg, po once daily after 14 days; assay type: functional, organism-based; parameters: dose 100 mg/kg

## O=C(NN1C(=O)[C@@H]2[C@@H]3C=C[C@@H]([C@H]4C[C@@H]34)[C@@H]2C1=O)c1ccc(C(F)(F)F)cc1 [TECOVIRIMAT]
[1]
  Activity: Active
[2]
  Activity: 13%
[3]
  Activity: 7%
[4]
  Activity: Active
[5]
  Activity: Active
[6]
  Activity: 0%
[7]
  Activity: 40%
[8]
  Activity: Active
[9]
  Activity: 0%
[10]
  Activity: Active
[11]
  Activity: Active
[12]
  Activity: 40%
[13]
  Activity: inactive
[14]
  Activity: Active
[15]
  Activity: 87%
[16]
  Activity: Active
[17]
  Activity: 73%
[18]
  Activity: Active
[19]
  Activity: 0%
[20]
  Activity: 50%
[21]
  Activity: Active
[22]
  Activity: 20%
[23]
  Activity: 20%
[24]
  Activity: 40%
[25]
  Activity: Active
[26]
  Activity: 13%
[27]
  Activity: Active
[28]
  Activity: Active
[29]
  Activity: 33%
[30]
  Activity: 7%
[31]
  Activity: Active
[32]
  Activity: Active
[33]
  Activity: inactive
[34]
  Activity: Active
[35]
  Activity: Active
[36]
  Activity: Active
[37]
  Activity: 7%
[38]
  Activity: 0%
[39]
  CC50: > 100 µM
[40]
  Activity: Active
[41]
  Ratio CC50/EC50: >2000
[42]
  Activity: Active
